Test results from patent publication US20220370390A1, “LIQUID ORAL FORMULATION OF BUMETANIDE” (NEUROCHLORE, priority 2019, published 2022).
Converted amounts (≈) assume the structure as drawn. Where two headings read alike, the source gives them in different places.

Key:
[1] = system: ASD core symptoms; test: Phase 2 clinical trial of oral bumetanide formulation; type: in vivo, children and adolescents; details: oral liquid formulation twice a day, paediatric population
Experimental: A phase 2 clinical trial that was run with various doses of the following oral formulation of bumetanide according to the invention: • Active ingredient: bumetanide at 0.5 mg/ml 1.0 mg/ml 2.0 mg/ml and placebo • Antimicrobial preservative: sodium methylparaben and sodium propylparaben • Buffering agents: NaH2PO4.2H2O and NaH2PO4 • Sweetening agents: Acesulfame potassium and sorbitol • Solvent: water The pH is 6.5. The liquid oral formulation is stored in an amber glass bottle with polypropylene/low density polyethylene child-resistant and tamper-evident cap. A 1 ml dosing pipette, consisting of a polystyrene plunger and a low-density polyethylene barrel and piston was used to administer directly the solution into the mouth. The posology was an oral administration of the liquid formulation twice a day for a paediatric population.

[2] = cited from earlier work

In the case of `CCCCNc1cc(C(=O)O)cc(S(N)(=O)=O)c1Oc1ccccc1` [Bumetanide, 3-(Butylamino)-4-phenoxy-5-sulfamoylbenzoic acid], the “severity of ASD core symptoms” value [1] is given as “can reduce the severity of ASD core symptoms”, the solubility ([2]; in aqueous buffers) is given as “sparingly soluble” and the solubility ([2]; in dimethyl formamide (DMF)) is given as 33 mg/mL (≈ 90.6 mM). For the same compound, the solubility ([2]; in ethanol) was 14 mg/mL (≈ 38.4 mM).
